Test results reported in the kinase profiling compilation of Christmann-Franck et al. (2016).
One block for each compound: values may come before it.

Assays:
Assay in all cases: Caliper, Mobility shift assay off-chip
[1] = target: MYLK2 (human) (UniProt Q9H1R3)
[2] = target: NEK2 (human) (UniProt P51955)
[3] = target: TEK (human) (UniProt Q02763)
[4] = target: STK3 (human) (UniProt Q13188)
[5] = target: PDGFRA (human) (UniProt P16234)
[6] = target: MAPK7 (human) (UniProt Q13164)
[7] = target: YES1 (human) (UniProt P07947)
Chain of YES1 (human) (P07947 whole entry, looked up): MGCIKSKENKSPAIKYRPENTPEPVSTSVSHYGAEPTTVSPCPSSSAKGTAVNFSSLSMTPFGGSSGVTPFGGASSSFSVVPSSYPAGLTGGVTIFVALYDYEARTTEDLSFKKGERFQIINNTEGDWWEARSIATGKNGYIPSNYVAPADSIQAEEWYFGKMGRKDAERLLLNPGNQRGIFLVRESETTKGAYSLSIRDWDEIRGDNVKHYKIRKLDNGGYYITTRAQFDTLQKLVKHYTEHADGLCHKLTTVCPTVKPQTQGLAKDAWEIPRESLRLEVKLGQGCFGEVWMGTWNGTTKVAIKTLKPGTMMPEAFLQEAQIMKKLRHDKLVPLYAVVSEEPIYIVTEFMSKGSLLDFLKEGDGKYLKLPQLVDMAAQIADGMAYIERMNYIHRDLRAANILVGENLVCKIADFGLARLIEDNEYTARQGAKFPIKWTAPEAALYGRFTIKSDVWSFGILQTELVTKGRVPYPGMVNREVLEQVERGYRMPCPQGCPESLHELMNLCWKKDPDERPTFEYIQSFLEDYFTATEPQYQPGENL

[8] = target: AURKB (human) (UniProt Q96GD4)
[9] = target: FGFR3 (human) (UniProt P22607)
Chain of FGFR3 (human) (P22607 whole entry, looked up): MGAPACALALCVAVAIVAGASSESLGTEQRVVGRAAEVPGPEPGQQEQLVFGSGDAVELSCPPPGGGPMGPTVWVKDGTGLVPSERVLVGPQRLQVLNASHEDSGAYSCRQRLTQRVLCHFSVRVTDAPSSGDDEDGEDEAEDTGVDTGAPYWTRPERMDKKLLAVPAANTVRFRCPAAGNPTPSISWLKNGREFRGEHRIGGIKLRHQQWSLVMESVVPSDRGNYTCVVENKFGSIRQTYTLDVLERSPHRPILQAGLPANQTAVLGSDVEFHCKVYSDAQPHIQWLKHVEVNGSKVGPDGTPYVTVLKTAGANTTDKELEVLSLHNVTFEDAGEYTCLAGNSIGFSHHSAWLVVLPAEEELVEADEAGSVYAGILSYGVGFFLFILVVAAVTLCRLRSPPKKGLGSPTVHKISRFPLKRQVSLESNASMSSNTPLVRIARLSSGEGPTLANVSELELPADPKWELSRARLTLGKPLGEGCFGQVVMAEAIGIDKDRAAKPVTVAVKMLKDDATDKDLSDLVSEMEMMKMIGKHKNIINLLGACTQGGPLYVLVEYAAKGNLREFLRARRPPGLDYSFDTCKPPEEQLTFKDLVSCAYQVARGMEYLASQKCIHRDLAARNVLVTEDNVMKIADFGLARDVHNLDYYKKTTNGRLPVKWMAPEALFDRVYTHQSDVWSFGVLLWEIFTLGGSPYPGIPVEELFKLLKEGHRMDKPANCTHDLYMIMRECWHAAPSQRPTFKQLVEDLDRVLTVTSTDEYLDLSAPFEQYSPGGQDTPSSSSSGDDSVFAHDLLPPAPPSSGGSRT

[10] = target: CSF1R (human) (UniProt P07333)
[11] = target: CIT (human) (UniProt O14578)
[12] = target: SGK2 (human) (UniProt Q9HBY8)
Chain of SGK2 (human) (Q9HBY8 whole entry, looked up): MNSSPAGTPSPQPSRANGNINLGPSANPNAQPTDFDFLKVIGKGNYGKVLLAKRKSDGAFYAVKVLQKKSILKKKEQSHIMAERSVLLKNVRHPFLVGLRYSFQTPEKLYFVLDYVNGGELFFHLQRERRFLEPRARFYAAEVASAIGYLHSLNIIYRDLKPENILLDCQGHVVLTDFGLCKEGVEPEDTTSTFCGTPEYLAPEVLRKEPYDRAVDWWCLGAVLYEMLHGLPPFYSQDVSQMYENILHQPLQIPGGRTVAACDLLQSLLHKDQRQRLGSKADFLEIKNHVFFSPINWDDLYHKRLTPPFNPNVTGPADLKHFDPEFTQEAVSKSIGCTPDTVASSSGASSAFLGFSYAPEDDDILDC

[13] = target: EEF2K (human) (UniProt O00418)
[14] = target: PRKG2 (human) (UniProt Q13237)
[15] = target: CHEK1 (human) (UniProt O14757)
Chain of CHEK1 (human) (O14757 whole entry, looked up): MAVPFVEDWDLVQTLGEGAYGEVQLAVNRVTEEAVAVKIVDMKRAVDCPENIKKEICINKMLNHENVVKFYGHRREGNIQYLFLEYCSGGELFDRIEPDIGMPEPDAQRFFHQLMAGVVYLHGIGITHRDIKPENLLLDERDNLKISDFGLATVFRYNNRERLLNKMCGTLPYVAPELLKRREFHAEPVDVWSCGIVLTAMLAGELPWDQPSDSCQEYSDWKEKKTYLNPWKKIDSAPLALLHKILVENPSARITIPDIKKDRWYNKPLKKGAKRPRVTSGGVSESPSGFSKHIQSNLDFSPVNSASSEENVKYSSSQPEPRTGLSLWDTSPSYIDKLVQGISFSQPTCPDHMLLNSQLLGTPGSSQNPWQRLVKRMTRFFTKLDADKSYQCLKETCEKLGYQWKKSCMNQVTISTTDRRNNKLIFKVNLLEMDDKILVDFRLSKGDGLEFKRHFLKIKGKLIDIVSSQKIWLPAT

[16] = target: PRKACB (human) (UniProt P22694)
[17] = target: CDK3 (human) (UniProt Q00526)
[18] = target: CSNK1G3 (human) (UniProt Q9Y6M4)
[19] = target: TEC (human) (UniProt P42680)
[20] = target: RPS6KB1 (human) (UniProt P23443)
[21] = target: PRKCA (human) (UniProt P17252)
[22] = target: CHUK (human) (UniProt O15111)
[23] = target: CDK4 (human) (UniProt P11802)
Chain of CDK4 (human) (P11802 whole entry, looked up): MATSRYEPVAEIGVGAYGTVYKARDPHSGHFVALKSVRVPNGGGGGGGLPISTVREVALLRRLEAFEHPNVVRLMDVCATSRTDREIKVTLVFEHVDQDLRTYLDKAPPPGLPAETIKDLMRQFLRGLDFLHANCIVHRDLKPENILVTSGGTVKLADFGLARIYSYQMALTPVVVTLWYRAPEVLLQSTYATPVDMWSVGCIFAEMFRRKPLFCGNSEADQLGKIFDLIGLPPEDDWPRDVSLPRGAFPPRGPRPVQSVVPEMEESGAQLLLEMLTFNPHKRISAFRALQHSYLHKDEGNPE

[24] = target: PLK3 (human) (UniProt Q9H4B4)
[25] = target: DDR2 (human) (UniProt Q16832)
[26] = target: DAPK1 (human) (UniProt P53355)
[27] = target: PDPK1 (human) (UniProt O15530)
[28] = target: CSNK2A2 (human) (UniProt P19784)
[29] = target: CAMK2B (human) (UniProt Q13554)
[30] = target: CAMK2G (human) (UniProt Q13555)
[31] = target: PTK6 (human) (UniProt Q13882)
[32] = target: NEK1 (human) (UniProt Q96PY6)
[33] = target: FGFR4 (human) (UniProt P22455)
Chain of FGFR4 (human) (P22455 whole entry, looked up): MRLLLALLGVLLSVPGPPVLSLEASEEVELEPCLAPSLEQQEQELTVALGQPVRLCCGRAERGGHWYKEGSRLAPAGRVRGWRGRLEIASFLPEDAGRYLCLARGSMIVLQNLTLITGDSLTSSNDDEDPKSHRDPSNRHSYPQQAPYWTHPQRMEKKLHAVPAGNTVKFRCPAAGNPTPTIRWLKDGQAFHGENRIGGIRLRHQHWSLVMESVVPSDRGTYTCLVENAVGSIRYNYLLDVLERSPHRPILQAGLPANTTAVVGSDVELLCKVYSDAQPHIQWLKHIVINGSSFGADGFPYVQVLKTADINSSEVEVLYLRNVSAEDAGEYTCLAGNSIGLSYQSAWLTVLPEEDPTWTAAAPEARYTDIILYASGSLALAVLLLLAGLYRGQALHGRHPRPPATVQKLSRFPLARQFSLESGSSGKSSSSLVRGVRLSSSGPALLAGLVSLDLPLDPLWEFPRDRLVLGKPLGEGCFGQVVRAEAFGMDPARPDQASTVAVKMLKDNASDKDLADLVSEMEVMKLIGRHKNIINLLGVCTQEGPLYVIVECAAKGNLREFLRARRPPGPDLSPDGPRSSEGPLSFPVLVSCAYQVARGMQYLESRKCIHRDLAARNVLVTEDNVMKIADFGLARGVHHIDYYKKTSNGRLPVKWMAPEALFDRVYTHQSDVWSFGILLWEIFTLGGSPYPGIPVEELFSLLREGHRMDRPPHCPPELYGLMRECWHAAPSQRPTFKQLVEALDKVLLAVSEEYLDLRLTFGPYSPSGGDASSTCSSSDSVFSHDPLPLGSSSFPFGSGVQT

[34] = target: PAK1 (human) (UniProt Q13153)
Chain of PAK1 (human) (Q13153 whole entry, looked up): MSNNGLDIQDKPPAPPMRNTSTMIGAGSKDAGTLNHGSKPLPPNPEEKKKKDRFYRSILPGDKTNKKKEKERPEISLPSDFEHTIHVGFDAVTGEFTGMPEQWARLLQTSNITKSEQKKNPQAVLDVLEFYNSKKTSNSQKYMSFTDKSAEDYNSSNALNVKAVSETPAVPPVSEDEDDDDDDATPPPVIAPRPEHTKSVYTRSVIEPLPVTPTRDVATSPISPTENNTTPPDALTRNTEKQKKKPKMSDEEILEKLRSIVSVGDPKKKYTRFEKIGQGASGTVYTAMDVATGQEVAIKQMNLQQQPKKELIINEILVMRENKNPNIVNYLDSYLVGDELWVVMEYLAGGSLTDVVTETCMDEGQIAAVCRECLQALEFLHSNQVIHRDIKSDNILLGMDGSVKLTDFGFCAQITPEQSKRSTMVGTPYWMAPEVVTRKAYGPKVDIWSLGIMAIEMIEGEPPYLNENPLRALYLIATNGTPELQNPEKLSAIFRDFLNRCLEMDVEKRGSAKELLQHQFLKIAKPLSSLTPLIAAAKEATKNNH

Chain of TEK (human) (Q02763 whole entry, looked up): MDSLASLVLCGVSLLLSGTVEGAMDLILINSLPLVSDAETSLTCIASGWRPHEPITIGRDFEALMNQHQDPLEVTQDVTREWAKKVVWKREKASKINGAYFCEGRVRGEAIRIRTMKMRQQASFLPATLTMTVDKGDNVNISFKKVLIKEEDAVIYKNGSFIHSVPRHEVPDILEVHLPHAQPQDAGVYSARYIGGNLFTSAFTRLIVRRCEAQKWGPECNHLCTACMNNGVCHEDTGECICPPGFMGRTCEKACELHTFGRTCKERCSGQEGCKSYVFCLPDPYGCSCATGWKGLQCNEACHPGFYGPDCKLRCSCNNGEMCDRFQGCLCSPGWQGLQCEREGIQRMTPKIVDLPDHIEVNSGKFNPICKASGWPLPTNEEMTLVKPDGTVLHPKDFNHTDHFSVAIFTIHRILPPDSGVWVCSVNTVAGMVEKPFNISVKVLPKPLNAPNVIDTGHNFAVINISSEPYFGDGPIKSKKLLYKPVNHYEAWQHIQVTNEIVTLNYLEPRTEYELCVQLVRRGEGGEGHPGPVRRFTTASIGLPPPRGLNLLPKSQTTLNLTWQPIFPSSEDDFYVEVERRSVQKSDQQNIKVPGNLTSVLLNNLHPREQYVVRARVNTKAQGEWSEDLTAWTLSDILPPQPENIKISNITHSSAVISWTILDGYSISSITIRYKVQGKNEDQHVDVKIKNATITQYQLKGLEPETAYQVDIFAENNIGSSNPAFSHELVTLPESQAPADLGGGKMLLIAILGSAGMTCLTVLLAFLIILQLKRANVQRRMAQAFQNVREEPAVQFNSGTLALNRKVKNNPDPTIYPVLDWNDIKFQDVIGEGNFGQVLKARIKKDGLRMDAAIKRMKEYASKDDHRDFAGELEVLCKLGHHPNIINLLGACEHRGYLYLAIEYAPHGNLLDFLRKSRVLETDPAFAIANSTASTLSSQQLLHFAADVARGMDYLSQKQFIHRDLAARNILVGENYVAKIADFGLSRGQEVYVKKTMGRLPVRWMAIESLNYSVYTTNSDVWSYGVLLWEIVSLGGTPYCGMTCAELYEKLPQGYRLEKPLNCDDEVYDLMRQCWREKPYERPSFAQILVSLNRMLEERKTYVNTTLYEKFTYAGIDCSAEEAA

inhibition ([1]; compound 0.02 µM): -2.3%
inhibition ([1]; compound 0.2 µM): -2.4%
inhibition ([2]; compound 0.02 µM): 6.3%
inhibition ([2]; compound 0.2 µM): 5.3%
inhibition ([3]; compound 0.02 µM): 5.8%
inhibition ([3]; compound 0.2 µM): 48.5%
inhibition ([4]; compound 0.02 µM): -2.4%
inhibition ([4]; compound 0.2 µM): -3%
inhibition ([5]; compound 0.02 µM): 39.2%
inhibition ([5]; compound 0.2 µM): 86.9%
inhibition ([6]; compound 0.02 µM): -8.6%
inhibition ([6]; compound 0.2 µM): -6.2%
inhibition ([7]; compound 0.02 µM): 26.9%
inhibition ([7]; compound 0.2 µM): 73.7%
inhibition ([8]; compound 0.02 µM): 4.5%
inhibition ([8]; compound 0.2 µM): 8.3%
inhibition ([9]; compound 0.02 µM): 72.3%
inhibition ([9]; compound 0.2 µM): 96.5%
inhibition ([10]; compound 0.02 µM): 18.4%
inhibition ([10]; compound 0.2 µM): 36.8%
inhibition ([11]; compound 0.02 µM): -3%
inhibition ([11]; compound 0.2 µM): -1.6%
inhibition ([12]; compound 0.02 µM): 4.4%
inhibition ([12]; compound 0.2 µM): 3.9%
inhibition ([13]; compound 0.02 µM): -5.2%
inhibition ([13]; compound 0.2 µM): 3.1%
inhibition ([14]; compound 0.02 µM): -2.4%
inhibition ([14]; compound 0.2 µM): -3.4%
inhibition ([15]; compound 0.02 µM): -6.2%
inhibition ([15]; compound 0.2 µM): -0.1%
inhibition ([16]; compound 0.02 µM): 6.8%
inhibition ([16]; compound 0.2 µM): -7.7%
inhibition ([17]; compound 0.02 µM): -3.3%
inhibition ([17]; compound 0.2 µM): -1.1%
inhibition ([18]; compound 0.02 µM): 2.8%
inhibition ([18]; compound 0.2 µM): -1.8%
inhibition ([19]; compound 0.02 µM): 4.5%
inhibition ([19]; compound 0.2 µM): 5.3%
inhibition ([20]; compound 0.02 µM): 8.1%
inhibition ([20]; compound 0.2 µM): 8.6%
inhibition ([21]; compound 0.02 µM): 10.1%
inhibition ([21]; compound 0.2 µM): 0.3%
inhibition ([22]; compound 0.02 µM): 5.3%
inhibition ([22]; compound 0.2 µM): 5.3%
inhibition ([23]; compound 0.02 µM): 2.7%
inhibition ([23]; compound 0.2 µM): 7.2%
inhibition ([24]; compound 0.02 µM): 6%
inhibition ([24]; compound 0.2 µM): 7.9%
inhibition ([25]; compound 0.02 µM): 26.6%
inhibition ([25]; compound 0.2 µM): 82.1%
inhibition ([26]; compound 0.02 µM): -5.9%
inhibition ([26]; compound 0.2 µM): 7.4%
inhibition ([27]; compound 0.02 µM): -2.1%
inhibition ([27]; compound 0.2 µM): -4.8%
inhibition ([28]; compound 0.02 µM): -0.7%
inhibition ([28]; compound 0.2 µM): -1.2%
inhibition ([29]; compound 0.02 µM): -4.3%
inhibition ([29]; compound 0.2 µM): -6%
inhibition ([30]; compound 0.02 µM): 0.2%
inhibition ([30]; compound 0.2 µM): 1.5%
Ki [31]: 11.8 nM
inhibition ([31]; compound 0.02 µM): 44.1%
inhibition ([31]; compound 0.2 µM): 92.1%
inhibition ([32]; compound 0.02 µM): -5%
inhibition ([32]; compound 0.2 µM): -4.5%
inhibition ([33]; compound 0.02 µM): 3.2%
inhibition ([33]; compound 0.2 µM): 22.3%
inhibition ([34]; compound 0.02 µM): -2.7%
inhibition ([34]; compound 0.2 µM): -3%
SMILES: COc1cc2c(Oc3ccc4[nH]c(C)cc4c3F)ncnc2cc1OCCCN1CCCC1

inhibition ([1]; compound 0.001 µM): -4.8%
inhibition ([1]; compound 0.02 µM): -2.6%
inhibition ([2]; compound 0.001 µM): 5.7%
inhibition ([2]; compound 0.02 µM): 4.7%
inhibition ([3]; compound 0.001 µM): -9%
inhibition ([3]; compound 0.02 µM): -4.9%
inhibition ([4]; compound 0.001 µM): -3.8%
inhibition ([4]; compound 0.02 µM): -2.3%
inhibition ([5]; compound 0.001 µM): 33.1%
inhibition ([6]; compound 0.001 µM): -9.5%
inhibition ([6]; compound 0.02 µM): -9.5%
inhibition ([7]; compound 0.001 µM): 5.9%
inhibition ([8]; compound 0.001 µM): 5.9%
inhibition ([8]; compound 0.02 µM): 48.4%
inhibition ([9]; compound 0.001 µM): 8.1%
inhibition ([9]; compound 0.02 µM): 47.4%
inhibition ([10]; compound 0.001 µM): 13.2%
inhibition ([10]; compound 0.02 µM): 22.8%
inhibition ([11]; compound 0.001 µM): -2.2%
inhibition ([11]; compound 0.02 µM): -4.4%
inhibition ([12]; compound 0.001 µM): -1.7%
inhibition ([12]; compound 0.02 µM): 4.4%
inhibition ([13]; compound 0.001 µM): -4.8%
inhibition ([13]; compound 0.02 µM): 2.3%
inhibition ([14]; compound 0.001 µM): -4.8%
inhibition ([14]; compound 0.02 µM): -6%
inhibition ([15]; compound 0.001 µM): -2%
inhibition ([15]; compound 0.02 µM): 0.9%
inhibition ([16]; compound 0.001 µM): -7.3%
inhibition ([16]; compound 0.02 µM): -10.6%
inhibition ([17]; compound 0.001 µM): -4.2%
inhibition ([17]; compound 0.02 µM): -4.8%
inhibition ([18]; compound 0.001 µM): -3.7%
inhibition ([18]; compound 0.02 µM): -2.5%
inhibition ([19]; compound 0.001 µM): 3.2%
inhibition ([19]; compound 0.02 µM): -3.2%
inhibition ([20]; compound 0.001 µM): 6.6%
inhibition ([20]; compound 0.02 µM): 10.6%
inhibition ([21]; compound 0.001 µM): 15.9%
inhibition ([21]; compound 0.02 µM): 0.7%
inhibition ([22]; compound 0.001 µM): -2.6%
inhibition ([22]; compound 0.02 µM): 2.6%
inhibition ([23]; compound 0.001 µM): -2.2%
inhibition ([23]; compound 0.02 µM): 2.9%
inhibition ([24]; compound 0.001 µM): 3.7%
inhibition ([24]; compound 0.02 µM): -1.3%
inhibition ([25]; compound 0.001 µM): -1.6%
inhibition ([25]; compound 0.02 µM): 2.2%
inhibition ([26]; compound 0.001 µM): -5%
inhibition ([26]; compound 0.02 µM): 4.8%
inhibition ([27]; compound 0.001 µM): -3.6%
inhibition ([27]; compound 0.02 µM): -6.4%
inhibition ([28]; compound 0.001 µM): -3.1%
inhibition ([28]; compound 0.02 µM): -5.6%
inhibition ([30]; compound 0.001 µM): 0.2%
inhibition ([30]; compound 0.02 µM): -1.1%
inhibition ([31]; compound 0.001 µM): -6%
inhibition ([31]; compound 0.02 µM): -4.8%
inhibition ([32]; compound 0.001 µM): -7.5%
inhibition ([32]; compound 0.02 µM): -8.1%
inhibition ([33]; compound 0.001 µM): 0%
inhibition ([33]; compound 0.02 µM): -3.4%
inhibition ([34]; compound 0.001 µM): -1.5%
inhibition ([34]; compound 0.02 µM): -1.5%
SMILES: CNC(=O)c1ccccc1Sc1ccc2c(/C=C/c3ccccn3)n[nH]c2c1
